From patent US20240327334A1, “Covalent Inhibitors As Antiviral Agents” (Enanta Pharmaceuticals, Inc., priority 2022, published 2024)

Legend:
[1] = molecular target: SARS-CoV-2 Papain-like (PLpro) protease (Severe acute respiratory syndrome coronavirus 2, UniProt P0DTD1); assay: SARS-CoV-2 Papain-like (PLpro) protease biochemical enzyme inhibition assay (ubiquitin-fluorophore substrate, Ub-R110); conditions: Ub-R110 substrate; run in duplicate; read-out: PLpro IC50
SARS-CoV-2 replicon = assay: microbe, parasite or virus in culture; assay type: cell-based; conditions: Severe acute respiratory syndrome coronavirus 2, Huh-7

SMILES: O=C(NCC#Cc1cccc(F)n1)C(=O)NCc1ccccc1C(=O)NC1(c2ccc3ccccc3c2)CC1 [Example 196]
- IC50 [1]: < 100 nM
- EC50 (SARS-CoV-2 replicon): < 1000 nM

SMILES: N#CCNC(=O)C(=O)NCc1ccccc1C(=O)NC1(c2cccc(-c3ccc(F)cc3)c2)CC1 [Example 543]
- IC50 [1]: 100 to 1000 nM
- EC50 (SARS-CoV-2 replicon): > 10000 nM

SMILES: C[C@@H](C#Cc1c(F)cccc1C#N)NC(=O)C(=O)NCc1ccccc1C(=O)NC1(c2ccc3nn(C)cc3c2)CC1 [Example 100]
- IC50 [1]: < 100 nM
- EC50 (SARS-CoV-2 replicon): < 1000 nM

SMILES: C#CCNC(=O)C(=O)NCc1ccccc1C(=O)NC1(c2cc(Cl)cc(-c3cnc(C4CC4)nc3)c2)CC1 [Example 73]
- IC50 [1]: < 100 nM
- EC50 (SARS-CoV-2 replicon): < 1000 nM

SMILES: N#CCNC(=O)C(=O)NCc1ccccc1C(=O)NC1(c2cc(Cl)cc(-c3cnn(C(F)F)c3)c2)CC1 [Example 456]
- IC50 [1]: < 100 nM
- EC50 (SARS-CoV-2 replicon): 1000 to 10000 nM

SMILES: Cc1cccnc1C#CCNC(=O)C(=O)NCc1ccccc1C(=O)NC1(c2cc(F)cc(-c3cn(C)nc3C)c2)CC1 [Example 260]
- IC50 [1]: < 100 nM
- EC50 (SARS-CoV-2 replicon): < 1000 nM

SMILES: O=C(NCC#Cc1nccs1)C(=O)NCc1ccccc1C(=O)NC1(c2ccnc3ccccc23)CC1 [Example 392]
- IC50 [1]: < 100 nM
- EC50 (SARS-CoV-2 replicon): 1000 to 10000 nM

SMILES: CC(C)(O)c1ccc(-c2cc(C3(NC(=O)c4ccccc4CNC(=O)C(=O)NCC#N)CC3)c3ccccc3c2)s1 [Example 354]
- IC50 [1]: < 100 nM
- EC50 (SARS-CoV-2 replicon): < 1000 nM

SMILES: Cc1n[nH]c(C)c1-c1cc(C2(NC(=O)c3ccccc3CNC(=O)C(=O)NCC#N)CC2)c2ccccc2c1 [Example 288]
- IC50 [1]: < 100 nM
- EC50 (SARS-CoV-2 replicon): 1000 to 10000 nM

SMILES: COCC1CCCN1c1cc(C2(NC(=O)c3ccccc3CNC(=O)C(=O)NCC#N)CC2)c2ccccc2c1 (stereo not shown) [Example 324]
- IC50 [1]: < 100 nM
- EC50 (SARS-CoV-2 replicon): 1000 to 10000 nM

SMILES: C#CCNC(=O)C(=O)NCc1ccccc1C(=O)NC1(c2cc(OC)cc(-c3cnn(C4CC4)c3)c2)CC1 [Example 244]
- IC50 [1]: < 100 nM
- EC50 (SARS-CoV-2 replicon): < 1000 nM

SMILES: COC(=O)/C=C/CNC(=O)C(=O)NCc1cc(F)c(F)cc1C(=O)N[C@H](C)c1cccc2ccccc12 [Example 362]
- IC50 [1]: < 100 nM
- EC50 (SARS-CoV-2 replicon): < 1000 nM

SMILES: N#CCNC(=O)C(=O)NCc1ccccc1C(=O)NC1(c2ccc(F)c(-c3cnn(C4CC4)c3)c2)CC1 [Example 221]
- IC50 [1]: < 100 nM
- EC50 (SARS-CoV-2 replicon): 1000 to 10000 nM

SMILES: Cc1nn(C2CC2)c(C)c1-c1cc(Cl)cc(C2(NC(=O)c3ccccc3CNC(=O)C(=O)NCC#Cc3nccs3)CC2)c1 [Example 132]
- IC50 [1]: < 100 nM
- EC50 (SARS-CoV-2 replicon): < 1000 nM

SMILES: COC(=O)/C=C/CNC(=O)C(=O)NCc1ccccc1C(=O)N[C@H](C)c1cc(-c2cnn(C(F)F)c2)cc(C(F)(F)F)c1 [Example 462]
- IC50 [1]: < 100 nM
- EC50 (SARS-CoV-2 replicon): < 1000 nM

SMILES: CN1C(=O)c2cccc3c(C4(NC(=O)c5ccccc5CNC(=O)C(=O)NCC#N)CC4)ccc1c23 [Example 428]
- IC50 [1]: < 100 nM
- EC50 (SARS-CoV-2 replicon): 1000 to 10000 nM

SMILES: O=C(NC/C=C/C(=O)N1CC[C@@H](O)C1)C(=O)NCc1ccccc1C(=O)NC1(c2cccc3ccccc23)CC1 [Example 563]
- IC50 [1]: < 100 nM
- EC50 (SARS-CoV-2 replicon): > 10000 nM

SMILES: Cc1nn(C(F)F)c(C)c1-c1cc(F)cc(C2(NC(=O)c3ccccc3CNC(=O)C(=O)NCC#Cc3nccs3)CC2)c1 [Example 140]
- IC50 [1]: < 100 nM
- EC50 (SARS-CoV-2 replicon): < 1000 nM

SMILES: C#CCNC(=O)C(=O)NCc1ccccc1C(=O)NC1(c2ccc(F)c(-c3cn(C)nc3C)c2)CC1 [Example 237]
- IC50 [1]: < 100 nM
- EC50 (SARS-CoV-2 replicon): < 1000 nM

SMILES: N#CN1CC[C@H]1CNC(=O)C(=O)NCc1ccccc1C(=O)NC1(c2cccc3ccccc23)CC1 [Example 500]
- IC50 [1]: < 100 nM
- EC50 (SARS-CoV-2 replicon): < 1000 nM

SMILES: CC(C#N)NC(=O)C(=O)NCc1ccccc1C(=O)NC1(c2cccc3ccccc23)CC1 (stereo not shown) [Example 33]
- IC50 [1]: 100 to 1000 nM
- EC50 (SARS-CoV-2 replicon): > 10000 nM

SMILES: C=C(C)c1ccc(-c2cc(C3(NC(=O)c4ccccc4CNC(=O)[C@H]4CCN(C#N)C4)CC3)c3ccccc3c2)s1 [Example 418]
- IC50 [1]: < 100 nM
- EC50 (SARS-CoV-2 replicon): < 1000 nM

SMILES: N#Cc1ccc(C#CCNC(=O)C(=O)NCc2ccccc2C(=O)NC2(c3ccc4ccccc4c3)CC2)nc1 [Example 190]
- IC50 [1]: < 100 nM
- EC50 (SARS-CoV-2 replicon): < 1000 nM
